Data as given in PubChem BioAssay AID330 (DTP/NCI, 2004).
Several values for one entry are separate records, joined by “and”; a condition that tells them apart may be missing. Equal entries are not always repeated. Toxic doses and inconclusive results are not listed. Rule for the calls: active = survival T/C of 150% or more; inactive = T/C below 125% in these data.

Tested on: P388 leukemia ip, CD2F1 mice, survival T/C
Assay: NCI In Vivo Anticancer Drug Screen. Data for tumor model P388 Leukemia (intraperitoneal) in CD2F1 (CDF1) mice
Settings: endpoint: median survival time, higher = longer survival
In short: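 Mice carrying the transplanted tumor received test compound or vehicle. Survival was recorded in each group, and the value is the treated-group measurement divided by that of the vehicle-treated control group.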

[1] = dose: 50.0 mg/kg/injection, schedule: Q04DX003 (ip), vehicle: saline with Tween-80
[2] = dose: 200.0 mg/kg/injection, schedule: Q04DX003 (ip), vehicle: saline with Tween-80
[3] = dose: 50.0 mg/kg/injection, schedule: Q01DX005 (ip), vehicle: saline with Tween-80
[4] = dose: 100.0 mg/kg/injection, schedule: Q01DX005 (ip), vehicle: saline with Tween-80
[5] = dose: 200.0 mg/kg/injection, schedule: Q01DX005 (ip), vehicle: saline with Tween-80

Measured: T/C

COc1ccc(NC(=O)Oc2ccc(C#N)cc2)cc1
inactive: dose: 7.5 mg/kg/injection, schedule: Q01DX005 (ip), vehicle: Klucel (hydroxypropylcellulose) (HPC) 108 % of control and 98 % of control | dose: 15.0 mg/kg/injection, schedule: Q01DX005 (ip), vehicle: Klucel (hydroxypropylcellulose) (HPC) 112 % of control and 98 % of control | dose: 30.0 mg/kg/injection, schedule: Q01DX005 (ip), vehicle: Klucel (hydroxypropylcellulose) (HPC) 105 % of control and 108 % of control | dose: 60.0 mg/kg/injection, schedule: Q01DX005 (ip), vehicle: Klucel (hydroxypropylcellulose) (HPC) 116 % of control and 123 % of control | dose: 120.0 mg/kg/injection, schedule: Q01DX005 (ip), vehicle: Klucel (hydroxypropylcellulose) (HPC) 117 % of control

COc1ccc(C(=O)c2ncccc2C(=O)O)cc1OC
inactive: dose: 25.0 mg/kg/injection, schedule: Q01DX009 (ip), vehicle: other 93 % of control | dose: 50.0 mg/kg/injection, schedule: Q01DX009 (ip), vehicle: other 88 % of control | dose: 100.0 mg/kg/injection, schedule: Q01DX009 (ip), vehicle: other 100 % of control | dose: 200.0 mg/kg/injection, schedule: Q01DX009 (ip), vehicle: other 97 % of control | dose: 400.0 mg/kg/injection, schedule: Q01DX009 (ip), vehicle: other 94 % of control

CCn1c(=O)c2[nH]c(Cl)nc2n(CCCl)c1=O
inactive: dose: 16.0 mg/kg/injection, schedule: Q01DX009 (ip), vehicle: Klucel (hydroxypropylcellulose) (HPC) 102 % of control and 118 % of control | dose: 32.0 mg/kg/injection, schedule: Q01DX009 (ip), vehicle: Klucel (hydroxypropylcellulose) (HPC) 111 % of control and 117 % of control | dose: 64.0 mg/kg/injection, schedule: Q01DX009 (ip), vehicle: Klucel (hydroxypropylcellulose) (HPC) 122 % of control | dose: 128.0 mg/kg/injection, schedule: Q01DX009 (ip), vehicle: Klucel (hydroxypropylcellulose) (HPC) 110 % of control

CCN(CC)c1c(C)nnc2c3c(-c4ccccc4)c(-c4ccccc4)nnc3nn12
inactive: [1] 86 % of control | [2] 86 % of control | dose: 400.0 mg/kg/injection, schedule: Q04DX003 (ip), vehicle: saline with Tween-80 91 % of control

CCCCCC(O)C1C(=O)OC(C)C(O)/C=C/C=C/C=C/C=C\C=C(\C)C(O)CC(O)CC(O)CC(O)CC(O)CC(O)CC1O (configuration not stated)
inactive: dose: 10.0 mg/kg/injection, schedule: Q04DX003 (ip), vehicle: other 104 % of control | dose: 20.0 mg/kg/injection, schedule: Q04DX003 (ip), vehicle: other 95 % of control | [3] 108 % of control | [4] 107 % of control | [5] 103 % of control

CNC(=O)OCC1=C(COC(=O)NC)C(=O)c2ccccc2C1=O
inactive: dose: 6.25 mg/kg/injection, schedule: Q01DX005 (ip), vehicle: Klucel (hydroxypropylcellulose) (HPC) 96 % of control | dose: 12.5 mg/kg/injection, schedule: Q01DX005 (ip), vehicle: Klucel (hydroxypropylcellulose) (HPC) 105 % of control | dose: 25.0 mg/kg/injection, schedule: Q01DX005 (ip), vehicle: Klucel (hydroxypropylcellulose) (HPC) 112 % of control

CC(=O)C(c1ccccc1)S(=O)(=O)c1ccc(C)cc1 (configuration not stated)
inactive: dose: 25.0 mg/kg/injection, schedule: Q01DX005 (ip), vehicle: saline with Tween-80 97 % of control | [3] 94 % of control | [4] 87 % of control

O=[N+]([O-])c1ccc(N=N/C(=N\Nc2ccccc2)c2nc3ccccc3[nH]2)c([N+](=O)[O-])c1
inactive: [3] 97 % of control | [4] 95 % of control | [5] 97 % of control

CCSC(=S)NC#N
inactive: dose: 50.0 mg/kg/injection, schedule: Q01DX009 (ip), vehicle: Klucel (hydroxypropylcellulose) (HPC) 109 % of control | dose: 100.0 mg/kg/injection, schedule: Q01DX009 (ip), vehicle: Klucel (hydroxypropylcellulose) (HPC) 93 % of control | dose: 200.0 mg/kg/injection, schedule: Q01DX009 (ip), vehicle: Klucel (hydroxypropylcellulose) (HPC) 88 % of control

C/C(=C\C(=O)c1ccccc1)N1CCN(c2ccc(F)cc2)CC1
inactive: dose: 50.0 mg/kg/injection, schedule: Q01DX005 (ip), vehicle: Klucel (hydroxypropylcellulose) (HPC) 102 % of control | dose: 100.0 mg/kg/injection, schedule: Q01DX005 (ip), vehicle: Klucel (hydroxypropylcellulose) (HPC) 105 % of control | dose: 200.0 mg/kg/injection, schedule: Q01DX005 (ip), vehicle: Klucel (hydroxypropylcellulose) (HPC) 96 % of control

COC(=O)C12CC=CC1C(C)CC2 (configuration not stated)
inactive: dose: 75.0 mg/kg/injection, schedule: Q04DX002 (ip), vehicle: Klucel (hydroxypropylcellulose) (HPC) 100 % of control | dose: 150.0 mg/kg/injection, schedule: Q04DX002 (ip), vehicle: Klucel (hydroxypropylcellulose) (HPC) 100 % of control | dose: 300.0 mg/kg/injection, schedule: Q04DX002 (ip), vehicle: Klucel (hydroxypropylcellulose) (HPC) 100 % of control

CCOC1=NC2C(O1)C1C3C2C13 (configuration not stated)
inactive: [3] 103 % of control | [4] 105 % of control | [5] 105 % of control

Cc1ccc(CNc2ccc([N+](=O)[O-])cc2)cc1
inactive: [1] 100 % of control | dose: 100.0 mg/kg/injection, schedule: Q04DX003 (ip), vehicle: saline with Tween-80 100 % of control | [2] 95 % of control

O=C(O)CSc1ncccc1Nc1ccc([N+](=O)[O-])cn1
inactive: dose: 50.0 mg/kg/injection, schedule: Q01DX009 (ip), vehicle: saline 102 % of control | dose: 100.0 mg/kg/injection, schedule: Q01DX009 (ip), vehicle: saline 86 % of control

COc1ccc(C(=O)Nc2ccccc2CCC2CCCCN2C)cc1 (configuration not stated)
inactive: dose: 6.25 mg/kg/injection, schedule: Q01DX009 (ip), vehicle: saline 95 % of control | dose: 12.5 mg/kg/injection, schedule: Q01DX009 (ip), vehicle: saline 95 % of control | dose: 25.0 mg/kg/injection, schedule: Q01DX009 (ip), vehicle: saline 92 % of control | dose: 25.0 mg/kg/injection, schedule: Q01DX009 (ip), vehicle: suspension in saline 100 % of control

CCOC(=O)NC(Cc1cc(OC)c(OC)cc1Br)c1ccc(OC)c(OC)c1 (configuration not stated)
inactive: [3] 89 % of control | [4] 89 % of control | [5] 100 % of control

C[Si](C)(CNCCN)O[Si](C)(C)CNCCN
inactive: dose: 60.0 mg/kg/injection, schedule: Q01DX005 (ip), vehicle: saline 99 % of control | dose: 120.0 mg/kg/injection, schedule: Q01DX005 (ip), vehicle: saline 90 % of control | dose: 240.0 mg/kg/injection, schedule: Q01DX005 (ip), vehicle: saline 101 % of control

CC12CCC(OC3OC(CO)C(O)C(O)C3O)CC1CCC1C2CCC2(C)C(c3ccc(=O)oc3)CCC12O (configuration not stated)
inactive: dose: 0.35 mg/kg/injection, schedule: Q01DX009 (ip), vehicle: saline 96 % of control | dose: 0.7 mg/kg/injection, schedule: Q01DX009 (ip), vehicle: saline 102 % of control | dose: 1.4 mg/kg/injection, schedule: Q01DX009 (ip), vehicle: saline 100 % of control

CC1(C)OCC(C2OC3OC(C)(C)OC3C2N2CCC(O)O2)O1 (configuration not stated)
inactive: dose: 97.75 mg/kg/injection, schedule: Q04DX002 (ip), vehicle: saline 103 % of control | dose: 195.5 mg/kg/injection, schedule: Q04DX002 (ip), vehicle: saline 109 % of control | dose: 391.0 mg/kg/injection, schedule: Q04DX002 (ip), vehicle: saline 105 % of control

O=C(O)CCCCCCC(=O)CCl
inactive: dose: 25.0 mg/kg/injection, schedule: Q04DX003 (ip), vehicle: saline 110 % of control | dose: 50.0 mg/kg/injection, schedule: Q04DX003 (ip), vehicle: saline 110 % of control | dose: 50.0 mg/kg/injection, schedule: Q04DX003 (ip), vehicle: suspension in saline 119 % of control | dose: 100.0 mg/kg/injection, schedule: Q04DX003 (ip), vehicle: saline 121 % of control | dose: 100.0 mg/kg/injection, schedule: Q04DX003 (ip), vehicle: suspension in saline 116 % of control

Oc1ccc(N=Nc2ccc3ccc4cccc5ccc2c3c45)c2cccnc12
inactive: dose: 25.0 mg/kg/injection, schedule: Q04DX003 (ip), vehicle: Klucel (hydroxypropylcellulose) (HPC) 101 % of control | dose: 50.0 mg/kg/injection, schedule: Q04DX003 (ip), vehicle: Klucel (hydroxypropylcellulose) (HPC) 101 % of control | dose: 100.0 mg/kg/injection, schedule: Q04DX003 (ip), vehicle: Klucel (hydroxypropylcellulose) (HPC) 100 % of control
